From PubChem BioAssay AID328 (DTP/NCI, 2004)
Values joined by “and” are separate entries in the source; they are usually repeats but may differ in a detail not shown here. Equal values may be shown once. Toxic doses and inconclusive results are not listed. How the source made its calls: active means survival T/C of 150% or more; inactive means T/C below 125% in these data.

Tested on: BDF1 mice, P388 leukemia ip, median survival T/C
Test: NCI In Vivo Anticancer Drug Screen. Data for tumor model P388 Leukemia (intraperitoneal) in B6D2F1 (BDF1) mice
Conditions: endpoint: median survival time, higher = longer survival
Summary of the method: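 Read-out is survival of treated animals expressed relative to the vehicle group, as a T/C ratio.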

[1] = dose: 25.0 mg/kg/injection, schedule: Q01DX009 (ip), vehicle: saline with Tween-80
[2] = dose: 50.0 mg/kg/injection, schedule: Q01DX009 (ip), vehicle: saline with Tween-80
[3] = dose: 100.0 mg/kg/injection, schedule: Q01DX009 (ip), vehicle: saline with Tween-80
[4] = dose: 100.0 mg/kg/injection, schedule: Q04DX003 (ip), vehicle: saline with Tween-80
[5] = dose: 200.0 mg/kg/injection, schedule: Q04DX003 (ip), vehicle: saline with Tween-80
[6] = dose: 400.0 mg/kg/injection, schedule: Q04DX003 (ip), vehicle: saline with Tween-80
[7] = dose: 25.0 mg/kg/injection, schedule: Q01DX009 (ip), vehicle: Klucel (hydroxypropylcellulose) (HPC)
[8] = dose: 50.0 mg/kg/injection, schedule: Q01DX009 (ip), vehicle: Klucel (hydroxypropylcellulose) (HPC)
[9] = dose: 200.0 mg/kg/injection, schedule: Q01DX009 (ip), vehicle: saline with Tween-80
[10] = dose: 12.5 mg/kg/injection, schedule: Q01DX009 (ip), vehicle: saline
[11] = dose: 100.0 mg/kg/injection, schedule: Q04DX003 (ip), vehicle: saline sonified

Measured: T/C

CCOC(=O)c1cnn(C)c1N
inactive: [1] 93 % of control | dose: 25.0 mg/kg/injection, schedule: Q04DX003 (ip), vehicle: water 109 % of control | [2] 102 % of control | dose: 50.0 mg/kg/injection, schedule: Q04DX003 (ip), vehicle: water 99 % of control | [3] 100 % of control | dose: 100.0 mg/kg/injection, schedule: Q04DX003 (ip), vehicle: water 114 % of control | dose: 200.0 mg/kg/injection, schedule: Q04DX003 (ip), vehicle: water 91 % of control | dose: 400.0 mg/kg/injection, schedule: Q04DX003 (ip), vehicle: water 116 % of control

COC(=O)c1ccc2oc(=O)cc(C)c2c1O
inactive: [4] 104 % of control | [5] 100 % of control | [6] 95 % of control

CCCCOP(=O)(O)CCCC.[Al]
inactive: dose: 12.5 mg/kg/injection, schedule: Q04DX003 (ip), vehicle: saline with Tween-80 97 % of control | dose: 25.0 mg/kg/injection, schedule: Q04DX003 (ip), vehicle: saline with Tween-80 97 % of control | dose: 50.0 mg/kg/injection, schedule: Q04DX003 (ip), vehicle: saline with Tween-80 91 % of control

Cc1cc(=O)[nH]c2c1CCCCC2
inactive: dose: 50.0 mg/kg/injection, schedule: Q01DX001 (ip), vehicle: saline sonified 104 % of control | dose: 100.0 mg/kg/injection, schedule: Q01DX001 (ip), vehicle: saline sonified 95 % of control

CC(C)(C)NC(=S)N/N=C/c1cc(Cl)cc(Cl)c1O
inactive: dose: 1.56 mg/kg/injection, schedule: Q01DX009 (ip), vehicle: saline with Tween-80 94 % of control | dose: 3.12 mg/kg/injection, schedule: Q01DX009 (ip), vehicle: saline with Tween-80 100 % of control | dose: 6.25 mg/kg/injection, schedule: Q01DX009 (ip), vehicle: saline with Tween-80 99 % of control

O=[N+]([O-])c1ccc(N=Cc2ccc3c(c2)OCO3)cc1
inactive: dose: 100.0 mg/kg/injection, schedule: Q01DX001 (ip), vehicle: Klucel (hydroxypropylcellulose) (HPC) 100 % of control | dose: 200.0 mg/kg/injection, schedule: Q01DX001 (ip), vehicle: Klucel (hydroxypropylcellulose) (HPC) 95 % of control | dose: 400.0 mg/kg/injection, schedule: Q01DX001 (ip), vehicle: Klucel (hydroxypropylcellulose) (HPC) 95 % of control

C=C1C(=O)OC2C3OC(C)(CCC(OC(C)=O)C3COC(C)=O)CC(OC(=O)/C(=C\C)COC(C)=O)C12 (configuration not stated)
inactive: [7] 106 % of control | [8] 106 % of control | dose: 100.0 mg/kg/injection, schedule: Q01DX009 (ip), vehicle: Klucel (hydroxypropylcellulose) (HPC) 118 % of control

CCOc1nc(S(=O)(=O)CC)ncc1C
inactive: [1] 92 % of control | dose: 75.0 mg/kg/injection, schedule: Q01DX009 (ip), vehicle: saline with Tween-80 90 % of control | [4] 105 % of control | dose: 150.0 mg/kg/injection, schedule: Q01DX009 (ip), vehicle: saline with Tween-80 106 % of control | [5] 96 % of control | [6] 96 % of control

COc1cc(C=Nc2ccc(-c3nc(Cc4ccccc4)sc3C)cc2)ccc1N(CCCl)CCCl
inactive: [8] 108 % of control
active: dose: 3.13 mg/kg/injection, schedule: Q01DX009 (ip), vehicle: Klucel (hydroxypropylcellulose) (HPC) 196 % of control | dose: 6.25 mg/kg/injection, schedule: Q01DX009 (ip), vehicle: Klucel (hydroxypropylcellulose) (HPC) 206 % of control | dose: 12.5 mg/kg/injection, schedule: Q01DX009 (ip), vehicle: Klucel (hydroxypropylcellulose) (HPC) 221 % of control | [7] 194 % of control and 198 % of control

CC(=O)OS(C)(=O)=O
inactive: dose: 20.0 mg/kg/injection, schedule: Q04DX003 (ip), vehicle: saline 100 % of control | dose: 40.0 mg/kg/injection, schedule: Q04DX003 (ip), vehicle: saline 95 % of control | dose: 80.0 mg/kg/injection, schedule: Q04DX003 (ip), vehicle: saline 104 % of control | dose: 100.0 mg/kg/injection, schedule: Q04DX003 (ip), vehicle: saline 110 % of control

COC1=C(OC)C23CCc4ccc(OC)c(O)c4C2(CCN3C)CC1=O (configuration not stated)
inactive: dose: 50.0 mg/kg/injection, schedule: Q01DX010 (ip), vehicle: carboxymethylcellulose (CMC) 88 % of control | dose: 100.0 mg/kg/injection, schedule: Q01DX010 (ip), vehicle: carboxymethylcellulose (CMC) 100 % of control

CC(C)=NNS(=O)(=O)c1ccc(C)cc1
inactive: dose: 25.0 mg/kg/injection, schedule: Q04DX003 (ip), vehicle: Klucel (hydroxypropylcellulose) (HPC) 106 % of control | dose: 50.0 mg/kg/injection, schedule: Q04DX003 (ip), vehicle: Klucel (hydroxypropylcellulose) (HPC) 106 % of control | dose: 100.0 mg/kg/injection, schedule: Q04DX003 (ip), vehicle: Klucel (hydroxypropylcellulose) (HPC) 111 % of control | dose: 200.0 mg/kg/injection, schedule: Q04DX003 (ip), vehicle: Klucel (hydroxypropylcellulose) (HPC) 111 % of control

Cc1cc(NCCN(C(C)C)C(C)C)nc(/N=C(\N)Nc2ccc(Cl)c(C(F)(F)F)c2)n1
inactive: dose: 3.8 mg/kg/injection, schedule: Q04DX003 (ip), vehicle: Klucel (hydroxypropylcellulose) (HPC) 104 % of control | dose: 4.68 mg/kg/injection, schedule: Q01DX009 (ip), vehicle: Klucel (hydroxypropylcellulose) (HPC) 95 % of control | dose: 5.8 mg/kg/injection, schedule: Q04DX003 (ip), vehicle: Klucel (hydroxypropylcellulose) (HPC) 95 % of control | dose: 9.37 mg/kg/injection, schedule: Q01DX009 (ip), vehicle: Klucel (hydroxypropylcellulose) (HPC) 100 % of control | dose: 18.75 mg/kg/injection, schedule: Q01DX009 (ip), vehicle: Klucel (hydroxypropylcellulose) (HPC) 104 % of control | dose: 20.0 mg/kg/injection, schedule: Q04DX003 (ip), vehicle: Klucel (hydroxypropylcellulose) (HPC) 116 % of control | dose: 26.0 mg/kg/injection, schedule: Q01DX009 (ip), vehicle: Klucel (hydroxypropylcellulose) (HPC) 95 % of control | dose: 26.0 mg/kg/injection, schedule: Q04DX003 (ip), vehicle: Klucel (hydroxypropylcellulose) (HPC) 106 % of control | dose: 40.0 mg/kg/injection, schedule: Q04DX003 (ip), vehicle: Klucel (hydroxypropylcellulose) (HPC) 106 % of control and 116 % of control | dose: 60.0 mg/kg/injection, schedule: Q04DX003 (ip), vehicle: Klucel (hydroxypropylcellulose) (HPC) 123 % of control

O=c1cc(O)cc(/C=C/c2ccc(O)cc2)o1
inactive: [3] 96 % of control | [9] 107 % of control | dose: 265.0 mg/kg/injection, schedule: Q01DX009 (ip), vehicle: saline with Tween-80 90 % of control | dose: 400.0 mg/kg/injection, schedule: Q01DX009 (ip), vehicle: saline with Tween-80 98 % of control

CCOC(=O)c1c(C)cc(C)nc1[S][Sn]([Cl])([Cl])[S]c1nc(C)cc(C)c1C(=O)OCC
inactive: [2] 99 % of control | [3] 107 % of control | [9] 106 % of control

CN(C)c1ccc(C(O)(Cc2cccnc2)c2ccc(N(C)C)cc2)cc1
inactive: [2] 113 % of control | [3] 100 % of control | [9] 96 % of control

CCN(CC)Cc1cc(Nc2c3ccccc3nc3cc(Cl)ccc23)ccc1O
inactive: [10] 100 % of control | dose: 12.5 mg/kg/injection, schedule: Q04DX003 (ip), vehicle: saline sonified 104 % of control | dose: 25.0 mg/kg/injection, schedule: Q01DX009 (ip), vehicle: saline 100 % of control | dose: 25.0 mg/kg/injection, schedule: Q04DX003 (ip), vehicle: saline sonified 100 % of control | dose: 50.0 mg/kg/injection, schedule: Q04DX003 (ip), vehicle: saline sonified 104 % of control

Nc1ncnc2c(C3OC(CO)C(O)C3O)[nH]nc12 (configuration not stated)
inactive: dose: 1.5 mg/kg/injection, schedule: Q01DX009 (ip), vehicle: saline 100 % of control | dose: 2.3 mg/kg/injection, schedule: Q01DX009 (ip), vehicle: saline 109 % of control | dose: 8.0 mg/kg/injection, schedule: Q01DX009 (ip), vehicle: saline 113 % of control | dose: 33.0 mg/kg/injection, schedule: Q04DX003 (ip), vehicle: saline 104 % of control | dose: 50.0 mg/kg/injection, schedule: Q04DX003 (ip), vehicle: saline 114 % of control | dose: 75.0 mg/kg/injection, schedule: Q04DX003 (ip), vehicle: saline 95 % of control | [11] 118 % of control
active: [10] 159 % of control

O=C1NCCS1
inactive: [11] 90 % of control | dose: 200.0 mg/kg/injection, schedule: Q04DX003 (ip), vehicle: saline sonified 90 % of control | dose: 400.0 mg/kg/injection, schedule: Q04DX003 (ip), vehicle: saline sonified 95 % of control
